Measurements as given in patent publication US5422349A, “Morpholino-oxazinyl-terminated alkylamino ethynyl alanine amino diol compounds for treatment of hypertension” (G. D. Seale & Co., priority 1992, dated 1995).
pIC50: −log10 of the molar value. Non-standard residues stand in square brackets, D forms with d. Residues, ends and D or L forms follow the SMILES beside them. *: point of attachment. Sta = CC(C)C[C@H](N)[C@@H](O)CC(=O)O; Isovaleryl = CC(C)CC(=O)*

What was measured:
human renin = target: T1, human renin (Homo sapiens, UniProt P00797); test: Human Renin Inhibition in vitro (angiotensin I produced, by radioimmunoassay); assay type: biochemical; details: pH 7.4, 37° C., two hours, human plasma
T1 construct: purchased National Institute for Biological Standards, London
T1 sequence (P00797 67-406): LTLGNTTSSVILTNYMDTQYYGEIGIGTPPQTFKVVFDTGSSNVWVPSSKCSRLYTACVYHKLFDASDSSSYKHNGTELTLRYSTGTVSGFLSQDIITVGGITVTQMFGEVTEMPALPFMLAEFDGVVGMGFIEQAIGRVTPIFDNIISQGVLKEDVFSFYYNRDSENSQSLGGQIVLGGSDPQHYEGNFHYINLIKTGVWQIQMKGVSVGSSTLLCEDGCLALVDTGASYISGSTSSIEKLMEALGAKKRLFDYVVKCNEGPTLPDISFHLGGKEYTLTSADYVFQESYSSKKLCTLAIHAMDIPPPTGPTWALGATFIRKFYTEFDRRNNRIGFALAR
Method: Compounds of Formula I were evaluated as inhibitors of human renin in an in Vitro assay, as follows: This human renin inhibition test has been previously described in detail [Papaioannou et al., Clinical and Experimental Hypertension, A7(9), 1243-1257 (1985)]. Human renin was obtained from the National Institute for Biological Standards, London. An incubation mixture was prepared containing the following components: in a total volume of 0.25 mL: 100 mM Tris-acetate buffer at pH 7.4, 25×10^-6 Goldblatt units of renin, 0.05 mL of plasma from human volunteers taking oral contraceptives, 6.0 mM Na-EDTA, 2.4 mM phenylmethyl sulfonyl fluoride, 1.5 mM 8-hydroxyquinoline, 0.4 mg/mL bovine serum albumin (BSA), and 0.024 mg/mL neomycin sulfate. This mixture was incubated for two hours at 37° C. in the presence or absence of renin inhibitors. The produced angiotensin I was determined by radioimmunoassay (New England Nuclear kit). Test compounds to be assayed were dissolved in DMSO and diluted with 100 mM Tris-acetate buffer at pH 7.4 containing 0.5% BSA to the appropriate concentration. The final concentration of organic solvent in the reaction mixture was less than 1%. Control incubations at 37° C. were used to correct for effects of organic solvent on renin activity.

pepsin = details: cited from earlier work
hog renin = details: after injection of hog renin into nephrectomized rats; cited from earlier work
cathepsin D = details: cited from earlier work
renin = details: cited from earlier work

SMILES | pIC50 (human renin) | inhibitor of pepsin (pepsin) | blood pressure (hog renin) | inhibitor of cathepsin D (cathepsin D) | inhibitor of renin (renin)
C#CC[C@H](NC(=O)[C@@H](CC(=O)N(C)CCN1CCOCC1)Cc1ccccc1)C(=O)N[C@@H](CC1CCCCC1)[C@@H](O)[C@@H](O)CC(C)C [Example 1, N^1-[1R*-[[[1S,1R*-(cyclohexylmethyl)-2S*,3R* -dihydroxy-5-methylhexyl]amino]carbonyl]-3-butynyl]-N^4-methyl-N^4-[2-(4-morpholinyl)ethyl]-2S*-(phenylmethyl)butanediamide] | 9.00 |  |  |  | 
CC(C)CC(=O)N[C@H](C(=O)N[C@H](C(=O)N[C@@H](CC(C)C)[C@@H](O)CC(=O)N[C@@H](C)C(=O)N[C@@H](CC(C)C)[C@@H](O)CC(=O)O)C(C)C)C(C)C [pepstatin] (Isovaleryl-VV[Sta]A[Sta]-OH) |  | inhibitor | reduce blood pressure in vivo | inhibitor | inhibitor
